# Experimental data from US12673043B2, “Use of inhibitors of the activator protein 1 (AP-1) for preventing adhesions” (The Board of Trustees of the Leland Stanford Junior …, priority 2020, dated 2026).
# Assays:
# [1] = tested on: phospho-JUN; test: In vivo JUN suppression in mouse adhesion model, phospho-flow cytometry of adhesion fibroblasts; settings: applied intra-abdominally (10 uM in DMSO, locally at time of adhesion surgery), wild-type and JUN mice, 24 hours, versus vehicle control (FIG. 5d, 22b)
# Method: (§1) Mouse Model for Adhesions. A similar model for abdominal adhesion formation has been described previously by our laboratory. In brief, mice were anesthetized with inhaled isoflurane (Henry Schein Animal Health,) at a concentration of 1-2% in oxygen at 3 L/min. Ophthalmic ointment (Puralube petrolatum, Dechra Veterinary Products) was applied to the cornea to prevent desiccation. Buprenorphine (Buprenex, Reckitt Benckiser Pharmaceuticals Inc.) was administered subcutaneously prior to the surgery at a dose of 0.1 mg/kg. The mice were placed in the supine position on a clean operating surface. A heating pad was used beneath the surgical field to keep the animals warm throughout the procedure. The abdomens were shaved, and the skin of the abdomen was sterilized with three applications of betadine followed by 70% ethanol. During the procedure, the respiratory rate of the animals was monitored, and the isoflurane was titrated accordingly. A vertical midline skin incision was made in the abdomen with sharp scissors. The underlying abdominal wall was then opened vertically. The cecum was located and exteriorized. The cecal wall was abraded gently with 150-grit sandpaper. The parietal peritoneum along the abdominal wall was similarly abraded with sandpaper and three, single, interrupted, 4-0, silk sutures were placed into the right abdominal sidewall, which served as a nidus for adhesion formation. The cecum was then placed anatomically adjacent to the right abdominal wall. The abdomen was briefly irrigated with warmed, sterile, normal saline. The irrigant was removed by blotting with a gauze sponge. The abdominal wall incision was closed with running 6-0 Monocryl suture, and the skin incision was closed with 6-0 nylon, horizontal mattress sutures. The animals were monitored during recovery from anesthesia. Additional buprenorphine was given every 6-12 hours as needed for pain. For sham surgery, animals were treated in an identical manner; however, incisions were closed without manipulation of abdominal organs.
# (§2) In Vivo JUN Induction and Suppression. Doxycycline (2 mg/mL) or T-5224 (Cayman Chem, 10 uM) resuspended in DMSO were applied locally to adhesion sites at the time of adhesion surgery for JUN induction (in JUN mice) or suppression (in JUN and WT mice), respectively. Vehicle only was used for control.
# (§3) Recruitment of Human Specimens. Human abdominal adhesion and control specimens were obtained at the Stanford Hospital under Stanford University's IRB approval. Clinical inclusion criteria were as follows: For adhesion specimens—patients must have had at least one prior abdominal surgery, for control specimens—patients must have had no history of prior abdominal surgery. […] Cells were counted and re-suspended in FACS buffer. […]
# [2] = tested on: phospho-STAT5; test: as above; settings: applied intra-abdominally (10 uM in DMSO, locally at time of adhesion surgery), wild-type and JUN mice, 24 hours, versus vehicle control (FIG. 5d, 22b)
# Method: as §1, §2, §3
# [3] = tested on: PDGFRA; test: Immunofluorescent staining of adhesion tissue after in vivo JUN inhibition; design: species or system mouse; settings: IF staining of adhesion tissue, JUN mice induced with doxycycline (FIG. 6e)
# Method: (§4) Mouse Model for Adhesions. A similar model for abdominal adhesion formation has been described previously by our laboratory. In brief, mice were anesthetized with inhaled isoflurane (Henry Schein Animal Health,) at a concentration of 1-2% in oxygen at 3 L/min. Ophthalmic ointment (Puralube petrolatum, Dechra Veterinary Products) was applied to the cornea to prevent desiccation. Buprenorphine (Buprenex, Reckitt Benckiser Pharmaceuticals Inc.) was administered subcutaneously prior to the surgery at a dose of 0.1 mg/kg. The mice were placed in the supine position on a clean operating surface. A heating pad was used beneath the surgical field to keep the animals warm throughout the procedure. The abdomens were shaved, and the skin of the abdomen was sterilized with three applications of betadine followed by 70% ethanol. During the procedure, the respiratory rate of the animals was monitored, and the isoflurane was titrated accordingly. A vertical midline skin incision was made in the abdomen with sharp scissors. The underlying abdominal wall was then opened vertically. The cecum was located and exteriorized. The cecal wall was abraded gently with 150-grit sandpaper. […] The animals were monitored during recovery from anesthesia. […]
# [4] = tested on: phospho-JUN; test: as above; design: species or system mouse; settings: IF staining of adhesion tissue, JUN mice induced with doxycycline, versus vehicle control (FIG. 6e-f)
# Method: as §4
# [5] = tested on: phospho-JUN; test: In vitro T-5224 treatment of freshly isolated mouse adhesion fibroblasts, phospho-flow cytometry; type: cell-based; settings: T-5224 10 μM, 24 hours, versus vehicle control (FIG. 22a)
# Description: (§5) Recruitment of Human Specimens. Human abdominal adhesion and control specimens were obtained at the Stanford Hospital under Stanford University's IRB approval. Clinical inclusion criteria were as follows: For adhesion specimens—patients must have had at least one prior abdominal surgery, for control specimens—patients must have had no history of prior abdominal surgery. For all patients, surgery must be elective, and there must be no evidence of active inflammation/infection at time of operation. Written, informed consent was obtained from the patient in the pre-op holding area prior to surgery. Tissue was collected in the operating room, placed directly into sterile saline, and kept on ice for transport. Sample preparation and FACS isolation. Adhesion or control tissue from mouse or human specimens was minced on ice. The tissue was then digested for 60 minutes in a 37° C. water bath agitator in 2 mg/mL collagenase (collagenase type IV, ThermoFisher) digest buffer in Medium 199 (HyClone, GE Healthcare) consisting of 5% fetal bovine serum (Gibco FBS, ThermoFisher), DNase I (Worthington), Poloxamer 188 (Cat. P5556-100ML, Sigma), HEPES, and CaCl2. […] Cells were counted and re-suspended in FACS buffer. […]
# [6] = tested on: phospho-STAT5; test: as above; type: cell-based; settings: T-5224 10 μM, 24 hours, versus vehicle control (FIG. 22a)
# Description: as §5
# [7] = tested on: abdominal adhesion formation; test: Mouse model for abdominal adhesions, gross and histologic scoring of adhesion tissue; type: in vivo; settings: local application at surgery, JUN and wild-type mice
# Method: as §4
compound,measurement,setting,value
"O=C(O)CCc1cc(C(=O)c2ccc(OC3CCCC3)cc2O)ccc1OCc1ccc2c(=O)[nH]oc2c1 [T-5224, 3-[5-(4-Cyclopentyloxy-2-hydroxybenzoyl)-2-[(3-oxo-1,2-benzoxazol-6-yl)methoxy]phenyl]propanoic acid]",phospho-JUN expression,[1],significantly decreased
same,phospho-JUN expression,[1]; listed as JUN inhibitor,significant decrease
same,phospho-STAT5 expression,[2],significantly decreased
same,phospho-STAT5 expression,[2]; listed as JUN inhibitor,significant decrease
same,PDGFRA expression in adhesion tissue,[3],Co-suppression
same,JUN expression at the tissue level (p-JUN+ cells),[4],decreased
same,phospho-JUN expression,[5],significantly reduced
same,phospho-STAT5 expression,[6],significantly reduced
same,"adhesions, histologic assessment","[7]; H&E and trichrome, versus vehicle control (FIG. 6a-d)",significantly thinner and less fibrotic
same,"adhesion formation, gross assessment","[7]; POD3, versus vehicle control (FIG. 5e-f)",dramatic decrease
